Columns and labels:
Bad:Bcl-XL = test: Co-immunoprecipitation of Bad with Bcl-XL; conditions: 25 nM paclitaxel 48 h or 2.5 uM STS 4 hours
Bad = test: Subcellular fractionation, Bad localization by Western blotting; conditions: MCF-7, MDA-MB-468, SKBR-3; 25 nM paclitaxel 48 h or 2.5 uM STS 4 hours
breast cancer = test: Survival analysis of breast cancer patients after adjuvant docetaxel-based chemotherapy, stratified by Bad staining; assay type: in vivo, human; conditions: 180 women, multivariate modeling
Protocol: Tissue micoarrays were made from formalin fixed breast tissues in triplicate 0.6 mm cores using the TMArrayer™. Tissues on slides were deparaffinized in xylene and rehydrated in decreasing concentrations of ethanol to water. Endogenous peroxidase was quenched in 0.3% H2O2 for 10 minutes. For antigen retrieval, slides were placed in boiling citrate buffer pH 6.0 for 10 minutes followed by rinsing in water for 10 minutes. Tissues were incubated with the BAD antibody (Cell Signaling Technology) at a dilution of 1/25 at 4° C. overnight in a humidified container or with Bik antibody (Cell signaling Technology) at a dilution of 1/50 at room temperature in a humidified container. Slides were washed 2 times in PBS for 5 minutes. For the secondary antibody, Anti-Rabbit EnVision+System-HRP (Dako) was incubated on the tissues at room temperature for 30 minutes. Slides were washed 2 times in PBS and then tissues were incubated with DAB (Dako) for 10 minutes. Slides were rinsed in water for 10 minutes followed by a soak in 1% Copper Sulfate for 5 minutes. Haematoxylin was used to counterstain the tissues. […] Staining intensity was scored as 0 (absent), 1 (weak), or 2 (strong). […] Using ROC, an optimized cutpoint of 0.57 was chosen for Bad expression and an optimized cutpoint of 0.1 was chosen for Bik expression, and patients were analyzed based on this cutpoint. […]

breast cancer cell lines = test: Apoptosis assays (TMRE loss, annexin V) in a panel of five breast cancer cell lines; assay type: cell-based, human; conditions: 25 nM paclitaxel; TMRE loss and annexin V positivity
Protocol: (§1) Apoptosis assays were performed as described previously (Czernick et al., 2009). Briefly, breast cancer cell lines were treated with dimethyl sulfoxide (DMSO) vehicle control or 25 nM paclitaxel, which corresponds to a clinically relevant dose (Blagosklonny and Fojo, 1999; Jordan et al., 1996). After treatment, samples were divided and analyzed for apoptosis. Apoptosis was evaluated by fluorescence-activated cell sorting (FACS) analysis using the following apoptotic markers: (i) mitochondrial dysfunction [loss of mitochondrial electrochemical potential and decreases in tetramethyl rhodamine ethyl ester (TMRE)]. Percent specific TMRE loss was determined as (% TMRE negative cells of treated sample−% TMRE negative cells of untreated control sample); (ii) increases in phosphatidylserine externalization (Annexin V). Percent specific annexin V positivity was determined as (% annexin V positive cells of treated sample−% annexin V positive cells of untreated control sample).
To investigate which BH3-only proteins are involved in paclitaxel-induced apoptosis, a panel of five validated breast cancer cell lines acquired from Dr. Gordon Mills (M.D. Anderson Cancer Center, U. of Texas) was analyzed; validated cells were used to avoid any controversy with respect to lineage authenticity (Graham et al., 1986; Osborne et al., 1987). […]

MCF-7 cell line = test: Apoptosis assays (TMRE loss, annexin V) in MCF-7; assay type: cell-based, human; conditions: 25 nM paclitaxel
Protocol: as §1
Each cell line was treated with 25 nM of paclitaxel, which induces a clinically relevant intracellular accumulation of the drug in tissue culture conditions (Derry et al., 1998; Jordan et al., 1996). After the indicated amount of time, apoptosis was assessed by measuring mitochondrial electrochemical potential loss (TMRE loss) and phosphatidyl serine externalization (annexin V positivity) (FIG. 1A).

Bcl-XL = Bcl-XL protein level in treated cells; assay type: cell-based, human; conditions: paclitaxel-treated cells
Description: In fact, mitotic arrest-mediated repression of Bcl-XL contributes to cell death via liberation of Bax (Upreti et al., 2008).

MCF-7 cells = test: DNA content analysis by propidium iodide staining (cell cycle); assay type: cell-based, human; conditions: up to 24 hours in paclitaxel
Protocol: Samples were fixed at −20° C. in ice-cold 70% ethanol for a minimum of 24 hours. After fixation, the samples were stained with 20 ug/ml propidium iodide, 2 mg/ml RNase, 0.1% Triton X-100 in PBS for 30 minutes at 4° C. Samples were analyzed in the FL-2 channel on the FACScan as previously described, with the exception that doublet discrimination was achieved by gating on the smaller width G2 cells as determined by analysis of pulse width versus pulse area (Goping et al., 2008).
To verify that the increased proportion of cells in G1 was due to delayed G1 exit and not increased G1 entry, G1 entry was inhibited by arresting cells at G2/M with paclitaxel. […] In time course analyses, the progression of cells from G1 through S to G2/M was delayed in Bad-depleted cells relative to control transfected cells. […] Based on these observations, and again while not wishing to be bound by theory, it was concluded that Bad contributes to cell cycle progression by facilitating exit from the G1 phase of the cell cycle and is supported by a similar role of Bad in rat fibroblasts (Chattopadhyay et al., 2001).

Structure (SMILES) | association of Bad and Bcl-XL (Bad:Bcl-XL) | mitochondrial translocation of Bad (Bad) | hazard ratio of relapse, low Bad tumour staining intensity (breast cancer; 95% CI 1.05-3.66) | death hazard ratio, low Bad tumour staining intensity (breast cancer; 95% CI 1.05-3.66 as printed) | relative paclitaxel sensitivities of the breast cancer cell lines, rank order of increasing sensitivity (breast cancer cell lines) | cell death based on mitochondrial dysfunction and cellular morphology (MCF-7 cell line; MCF-7) | loss of mitochondrial potential (TMRE loss) (MCF-7 cell line; MCF-7) | phosphatidyl serine externalization (annexin V positivity) (MCF-7 cell line; MCF-7, cells do not express caspase 3) | levels of Bcl-XL protein (Bcl-XL) | mitotic arrest (G2/M) (MCF-7 cells)
CN[C@@H]1C[C@H]2O[C@@](C)([C@@H]1OC)n1c3ccccc3c3c4c(c5c6ccccc6n2c5c31)C(=O)NC4 [STS, staurosporine] | remained as a complex | migrated to mitochondria |  |  |  |  |  |  |  | 
CC(=O)O[C@@]12CO[C@@H]1C[C@H](O)[C@@]1(C)C(=O)[C@H](O)C3=C(C)[C@@H](OC(=O)[C@H](O)[C@@H](NC(=O)OC(C)(C)C)c4ccccc4)C[C@@](O)([C@@H](OC(=O)c4ccccc4)[C@H]21)C3(C)C [docetaxel] |  |  | 1.96 | 3.65 |  |  |  |  |  | 
CC(=O)O[C@H]1C(=O)[C@@]2(C)[C@H]([C@H](OC(=O)c3ccccc3)[C@]3(O)C[C@H](OC(=O)[C@H](O)[C@@H](NC(=O)c4ccccc4)c4ccccc4)C(C)=C1C3(C)C)[C@]1(OC(C)=O)CO[C@@H]1C[C@@H]2O [paclitaxel] | decreased association of Bad and Bcl-XL | did not induce mitochondrial translocation of Bad |  |  | MDA-MB-231, T47-D, MDA-MB-468, MCF-7 and SKBR-3 | induced significant death | robust loss of mitochondrial potential | blunted | reduced levels of Bcl-XL protein | induced mitotic arrest

From patent publication US8980564B2, “Predictive markers for taxane responsiveness and methods of use thereof” (The Governors of the University of Alberta, priority 2009, dated 2015)
